Data taken from PMC6095626, “Screening of the Pathogen Box for inhibitors with dual efficacy against Giardia lamblia and Cryptosporidium parvum” (PLoS Neglected Tropical Diseases, 2018).

Assays:
[1] = tested on: G. lamblia trophozoites (luciferase expressing, WBC6); assay: microbe, parasite or virus in culture; assay type: cell-based, Giardia lamblia; settings: for Giardia (16 uM) Mean % inhibition: initial Pathogen Box screen, single concentration 16 µM, inhibition compared to DMSO wells
How it was run: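 Luciferase-expressing WBC6 trophozoites plated at 250,000 cells/mL, compounds added 1:1, incubated anaerobically (GasPak bags) at 37 °C for 24 h; viability read by bioluminescence, with duplicate plates counted on a MOXI Z cell counter. Metronidazole control serially diluted 1:2 from 40 μM.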

[2] = tested on: C. parvum (UGA1 Nluc expressing strain in HCT-8 cells); assay: microbe, parasite or virus in culture; assay type: cell-based, Cryptosporidium parvum; settings: for Crypto (10 uM) Mean % inhibition: initial Pathogen Box screen, single concentration 10 µM, inhibition compared to DMSO wells
How it was run: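 HCT-8 monolayers grown 48 h to 90–100% confluence, treated with compound at 10 μM or serial dilutions, then infected with bleach-treated UGA1 Nluc C. parvum oocysts.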

SMILES: COc1ccc(-c2cnc3ccc(N4CCCC4)nn23)cc1OC [MMV023985]
- Giardia (16 uM) Mean % inhibition [1]: X* (Mean or standard deviation are negative but not significantly different from the control to be a growth promoter)
- Crypto (10 uM) Mean % inhibition [2]: 93%

SMILES: CC(C)C(C(=O)Nc1ccc(S(=O)(=O)N(C)C)cc1)c1ccc(Cl)cc1 (stereo not drawn) [MMV020391]
- Giardia (16 uM) Mean % inhibition [1]: 8%
- Crypto (10 uM) Mean % inhibition [2]: 67%

SMILES: Nc1nccc2ccc(Oc3ccncc3)cc12 [MMV026313]
- Giardia (16 uM) Mean % inhibition [1]: X* (Mean or standard deviation are negative but not significantly different from the control to be a growth promoter)
- Crypto (10 uM) Mean % inhibition [2]: X* (Mean or standard deviation are negative but not significantly different from the control to be a growth promoter)

SMILES: NC(=O)c1cc(Br)ccc1OCCOc1ccccc1 [MMV687243]
- Giardia (16 uM) Mean % inhibition [1]: 66%
- Crypto (10 uM) Mean % inhibition [2]: 77%

SMILES: COc1ccc(Nc2ccccc2NC(=O)c2ccc(=O)[nH]c2)cc1 [MMV676554]
- Giardia (16 uM) Mean % inhibition [1]: 21%
- Crypto (10 uM) Mean % inhibition [2]: 61%

SMILES: COc1ccc(C2=NCCN2)cc1-c1cn(-c2cccc(C3=NCCN3)c2)nn1 [MMV688547]
- Giardia (16 uM) Mean % inhibition [1]: 33%
- Crypto (10 uM) Mean % inhibition [2]: 45%

SMILES: NC(N)=Nc1ccc(-c2ccc(-c3ccc(N=C(N)N)cc3Cl)o2)c(Cl)c1 [MMV688179]
- Giardia (16 uM) Mean % inhibition [1]: 11%
- Crypto (10 uM) Mean % inhibition [2]: 56%

SMILES: CC(C)NCC(=O)Nc1cccc(C(=O)Nc2cccc(C(F)(F)F)c2)c1 [MMV020165]
- Giardia (16 uM) Mean % inhibition [1]: 81%
- Crypto (10 uM) Mean % inhibition [2]: 45%

SMILES: O=C(NCCN1CCCC1)c1cc(NCCCCN2CCC(F)(F)CC2)nc2ccc(Cl)cc12 [MMV667494]
- Giardia (16 uM) Mean % inhibition [1]: 82%
- Crypto (10 uM) Mean % inhibition [2]: X* (Mean or standard deviation are negative but not significantly different from the control to be a growth promoter)

SMILES: Cc1cc(C(=O)Nc2cnn(Cc3ccc(Cl)cc3Cl)c2)no1 [MMV009054]
- Giardia (16 uM) Mean % inhibition [1]: X* (Mean or standard deviation are negative but not significantly different from the control to be a growth promoter)
- Crypto (10 uM) Mean % inhibition [2]: 59%

SMILES: O=C(NCCc1c[nH]c2ccccc12)c1cc2ccccc2oc1=O [MMV676539]
- Giardia (16 uM) Mean % inhibition [1]: 7%
- Crypto (10 uM) Mean % inhibition [2]: 22%

SMILES: Nc1ccc2ncnc(Nc3ccc(OCc4cccc(F)c4)c(Cl)c3)c2c1 [MMV688273]
- Giardia (16 uM) Mean % inhibition [1]: 51%
- Crypto (10 uM) Mean % inhibition [2]: X* (Mean or standard deviation are negative but not significantly different from the control to be a growth promoter)

SMILES: CO[C@@H](C(=O)N1Cc2[nH]nc(NC(=O)c3ccc(N4CCN(C)CC4)cc3)c2C1)c1ccccc1 [MMV676600]
- Giardia (16 uM) Mean % inhibition [1]: 6%
- Crypto (10 uM) Mean % inhibition [2]: 76%

SMILES: O=C(N[C@H](Cc1ccccc1)C(=O)Nc1ccccc1N1CCOCC1)c1cccs1 [MMV688845]
- Giardia (16 uM) Mean % inhibition [1]: 25%
- Crypto (10 uM) Mean % inhibition [2]: 77%

SMILES: COc1cccc(OCC(=O)c2ccc(Br)cc2)c1 [MMV676379]
- Giardia (16 uM) Mean % inhibition [1]: 80%
- Crypto (10 uM) Mean % inhibition [2]: 55%

SMILES: Cc1[nH]c2ccccc2c1C(c1cccs1)N1CCN(C)CC1 (stereo not drawn) [MMV688768]
- Giardia (16 uM) Mean % inhibition [1]: 9%
- Crypto (10 uM) Mean % inhibition [2]: 66%

SMILES: COc1ccc(N(CCc2cccc(C)n2)C(=O)C2CCCCC2)cc1 [MMV675996]
- Giardia (16 uM) Mean % inhibition [1]: 16%
- Crypto (10 uM) Mean % inhibition [2]: X* (Mean or standard deviation are negative but not significantly different from the control to be a growth promoter)

SMILES: Cc1nnc(NCc2cccc(Cl)c2)c2ccccc12 [MMV676555]
- Giardia (16 uM) Mean % inhibition [1]: X* (Mean or standard deviation are negative but not significantly different from the control to be a growth promoter)
- Crypto (10 uM) Mean % inhibition [2]: X* (Mean or standard deviation are negative but not significantly different from the control to be a growth promoter)

SMILES: O=C(NC1=NCCS1)c1sc2cc(F)ccc2c1Cl [MMV676584]
- Giardia (16 uM) Mean % inhibition [1]: 89%
- Crypto (10 uM) Mean % inhibition [2]: 69%

SMILES: CC(=O)N1CCN(c2ccc(Oc3ccc(Cl)cc3O)cc2)CC1 [MMV688330]
- Giardia (16 uM) Mean % inhibition [1]: X* (Mean or standard deviation are negative but not significantly different from the control to be a growth promoter)
- Crypto (10 uM) Mean % inhibition [2]: 56%

SMILES: CCCNC(=O)N1CCC2(CC1)CC(=O)c1cc(C)ccc1O2 [MMV085230]
- Giardia (16 uM) Mean % inhibition [1]: 63%
- Crypto (10 uM) Mean % inhibition [2]: 62%

SMILES: COC(=O)c1c(NC(=O)c2c(F)c(F)c(F)c(F)c2F)sc2c1CCCCC2 [MMV461553]
- Giardia (16 uM) Mean % inhibition [1]: 33%
- Crypto (10 uM) Mean % inhibition [2]: 49%

SMILES: CC(C)=CCC/C(C)=C\CNCCNC1C2CC3CC(C2)CC1C3 (stereo not drawn) [MMV687273]
- Giardia (16 uM) Mean % inhibition [1]: 89%
- Crypto (10 uM) Mean % inhibition [2]: 35%

SMILES: N#Cc1ccc(-c2ccc(OCC(N)=O)cc2)cc1 [MMV053220]
- Giardia (16 uM) Mean % inhibition [1]: 74%
- Crypto (10 uM) Mean % inhibition [2]: 52%

SMILES: Cc1cc(C)n(-c2ccc(NC(=O)C3CCN(Cc4cnc(C)s4)CC3)cc2)n1 [MMV007625]
- Giardia (16 uM) Mean % inhibition [1]: 27%
- Crypto (10 uM) Mean % inhibition [2]: X* (Mean or standard deviation are negative but not significantly different from the control to be a growth promoter)

SMILES: O=C1O[C@@H](CO)CN1c1cc(F)c(C2=CCN(Cc3ccccc3)CC2)c(F)c1 [MMV687729]
- Giardia (16 uM) Mean % inhibition [1]: 25%
- Crypto (10 uM) Mean % inhibition [2]: 74%

SMILES: CCOc1ccc2cc(-c3nn(C(C)(C)C)c(N)c3C(N)=O)cnc2c1 [MMV688853]
- Giardia (16 uM) Mean % inhibition [1]: X* (Mean or standard deviation are negative but not significantly different from the control to be a growth promoter)
- C. parvum cell growth inhibition in the initial screen ([2]; 10 μM, 48 hours): ≥ 95%
- Crypto (10 uM) Mean % inhibition [2]: 96%

SMILES: COCC(C)NC(=O)CSc1ncnc2sc(-c3ccccc3)cc12 (stereo not drawn) [MMV676536]
- Giardia (16 uM) Mean % inhibition [1]: 15%
- Crypto (10 uM) Mean % inhibition [2]: X* (Mean or standard deviation are negative but not significantly different from the control to be a growth promoter)

SMILES: Clc1ccc(CN2CCN(C3=NCCN3)CC2)cc1Cl [MMV689060]
- Giardia (16 uM) Mean % inhibition [1]: X* (Mean or standard deviation are negative but not significantly different from the control to be a growth promoter)
- Crypto (10 uM) Mean % inhibition [2]: 50%

SMILES: N=C(N)c1ccc(OCCCCCOc2ccc(C(=N)N)cc2)cc1 [MMV000062, pentamidine, reference compound]
- G. lamblia inhibition of parasite growth in the initial screen ([1]; 16 μM, 24 hours): did not show up in the screen
- inhibition at 16 µM ([1]; Giardia duodenalis, read-out: Giardia (16 uM) Mean % inhibition): 9%
- inhibition at 10 µM ([2]; Cryptosporidium parvum, HCT-8, read-out: Crypto (10 uM) Mean % inhibition): 50%

SMILES: COc1cccc(CC(=O)N2CCC(n3c(C)nc4ccc(F)cc43)CC2)c1 [MMV020081]
- Giardia (16 uM) Mean % inhibition [1]: X* (Mean or standard deviation are negative but not significantly different from the control to be a growth promoter)
- Crypto (10 uM) Mean % inhibition [2]: X* (Mean or standard deviation are negative but not significantly different from the control to be a growth promoter)

SMILES: c1ccc(-c2[nH]c3ccccc3c2C(c2ccccn2)N2CCCC2)cc1 (stereo not drawn) [MMV688762]
- Giardia (16 uM) Mean % inhibition [1]: 22%
- Crypto (10 uM) Mean % inhibition [2]: X* (Mean or standard deviation are negative but not significantly different from the control to be a growth promoter)

SMILES: COc1ccc(-c2cc(NC(=O)c3ccc(F)cc3Cl)ccc2OC)cc1 [MMV676526]
- Giardia (16 uM) Mean % inhibition [1]: 87%
- Crypto (10 uM) Mean % inhibition [2]: 46%

SMILES: CN(C)c1cc(NC(=O)Nc2ccccc2)c2ccccc2n1 [MMV006901]
- Giardia (16 uM) Mean % inhibition [1]: 49%
- Crypto (10 uM) Mean % inhibition [2]: X* (Mean or standard deviation are negative but not significantly different from the control to be a growth promoter)

SMILES: COc1cccc(NC(=O)c2c(NC(=O)c3cccnc3)sc3c2CCC3)c1 [MMV228911]
- Giardia (16 uM) Mean % inhibition [1]: 37%
- Crypto (10 uM) Mean % inhibition [2]: 39%

SMILES: CC(c1cc(Cl)cc(Cl)c1)N(C)c1ncc2c(N)nc(N)nc2n1 (stereo not drawn) [MMV689437]
- Giardia (16 uM) Mean % inhibition [1]: 46%
- Crypto (10 uM) Mean % inhibition [2]: X* (Mean or standard deviation are negative but not significantly different from the control to be a growth promoter)

SMILES: COc1ccc(-c2nnc3ccc(-c4cccc(C(C)C)c4)cn23)cc1OC [MMV688313]
- Giardia (16 uM) Mean % inhibition [1]: 26%
- Crypto (10 uM) Mean % inhibition [2]: 34%

SMILES: O=C(NCCc1ccccc1)c1cc(-c2cccnc2)cnc1NCC1CC1 [MMV026490]
- Giardia (16 uM) Mean % inhibition [1]: 12%
- Crypto (10 uM) Mean % inhibition [2]: X* (Mean or standard deviation are negative but not significantly different from the control to be a growth promoter)

SMILES: Nc1c2c(nc3sc4c(c13)CCCC4)CCCC2 [MMV676588]
- Giardia (16 uM) Mean % inhibition [1]: 26%
- Crypto (10 uM) Mean % inhibition [2]: 48%

SMILES: C[C@@H]1[C@H](O)[C@@H](C)/C=C/C=C/C=C/C=C/C=C/C=C/C=C/[C@H](O[C@@H]2O[C@H](C)[C@@H](O)[C@H](N)[C@@H]2O)C[C@@H]2O[C@](O)(C[C@@H](O)C[C@@H](O)[C@H](O)CC[C@@H](O)C[C@@H](O)CC(=O)O[C@H]1C)C[C@H](O)[C@H]2C(=O)O [MMV689000]
- Giardia (16 uM) Mean % inhibition [1]: 41%
- Crypto (10 uM) Mean % inhibition [2]: X* (Mean or standard deviation are negative but not significantly different from the control to be a growth promoter)

SMILES: CC(C)(C(=O)Nc1ccc(F)cc1)n1cc(-c2ccccc2F)cn1 [MMV687239]
- Giardia (16 uM) Mean % inhibition [1]: 39%
- Crypto (10 uM) Mean % inhibition [2]: 59%

SMILES: Nc1ncc(-c2cn[nH]c2)cc1-c1nc2cc(Cl)cnc2[nH]1 [MMV023370]
- Giardia (16 uM) Mean % inhibition [1]: 38%
- Crypto (10 uM) Mean % inhibition [2]: X* (Mean or standard deviation are negative but not significantly different from the control to be a growth promoter)

SMILES: CCCCOC(=O)Nc1cc2[nH]c(C3CCCCC3)nc2cc1N1CCCC1 [MMV687730]
- Giardia (16 uM) Mean % inhibition [1]: 24%
- Crypto (10 uM) Mean % inhibition [2]: 61%

SMILES: Cc1cc(C)cc(COc2ccc3c(C)c(CCC(=O)O)c(=O)oc3c2C)c1 [MMV676476]
- Giardia (16 uM) Mean % inhibition [1]: 35%
- Crypto (10 uM) Mean % inhibition [2]: X* (Mean or standard deviation are negative but not significantly different from the control to be a growth promoter)
